Test results reported in PubChem BioAssay AID652247 (Sanford-Burnham Center for Chemical Genomics, 2013).
Calls of active or inactive are those of the source. No rule for the calls is given here.

Molecular target: NEDD8-conjugating enzyme Ubc12 (Homo sapiens) + NEDD8-activating enzyme E1 regulatory subunit (Homo sapiens) (UniProt P61081+Q13564)
Test: NEDD8 conjugation to CUL1 blockade – biochemical, TR-FRET, dose response (AID 652247)
Conditions: in vitro CUL1 neddylation

Chain of NEDD8-conjugating enzyme Ubc12 (Homo sapiens) + NEDD8-activating enzyme E1 regulatory subunit (Homo sapiens) (P61081 whole entry, looked up): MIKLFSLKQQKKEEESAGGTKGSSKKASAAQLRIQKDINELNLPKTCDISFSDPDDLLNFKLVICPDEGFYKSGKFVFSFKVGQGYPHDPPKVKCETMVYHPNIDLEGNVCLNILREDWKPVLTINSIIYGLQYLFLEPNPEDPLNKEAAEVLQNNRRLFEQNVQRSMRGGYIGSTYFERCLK
Chain of NEDD8-conjugating enzyme Ubc12 (Homo sapiens) + NEDD8-activating enzyme E1 regulatory subunit (Homo sapiens) (Q13564 whole entry, looked up): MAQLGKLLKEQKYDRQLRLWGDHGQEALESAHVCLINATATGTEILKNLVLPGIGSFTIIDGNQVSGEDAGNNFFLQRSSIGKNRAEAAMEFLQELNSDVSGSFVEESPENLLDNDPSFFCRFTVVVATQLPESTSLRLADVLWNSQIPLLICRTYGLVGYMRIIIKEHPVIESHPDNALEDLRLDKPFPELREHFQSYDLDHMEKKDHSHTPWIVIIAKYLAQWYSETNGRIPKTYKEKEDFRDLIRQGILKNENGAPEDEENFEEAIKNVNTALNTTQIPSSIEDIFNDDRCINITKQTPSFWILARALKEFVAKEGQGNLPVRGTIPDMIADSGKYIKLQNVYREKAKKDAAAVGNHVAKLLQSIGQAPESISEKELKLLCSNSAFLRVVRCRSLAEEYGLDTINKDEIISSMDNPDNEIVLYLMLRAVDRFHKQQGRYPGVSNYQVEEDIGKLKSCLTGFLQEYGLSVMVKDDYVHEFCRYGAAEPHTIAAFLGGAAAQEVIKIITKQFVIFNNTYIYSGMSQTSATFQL

| IC50 | SMILES |
| --- | --- |
| inactive | COc1cc2sc(-c3ccc(S(C)(=O)=O)cc3)c(C#CCO)c2cc1OC |
| inactive | COC(=O)CSc1ccc2c(N)c(C(=O)OC)sc2c1 |
| inactive | Nc1c2c(=O)oc(-c3ccccc3)cc2nn1-c1ccccc1 |
| inactive | O=C(CN1c2cccc3cccc(c23)S1(=O)=O)NCc1ccc(F)cc1 |
| inactive | O=c1oc2ccccc2cc1-c1cn2cccnc2n1 |
| inactive | CCOC(=O)C1=C(COCCN)NC(C)=C(C(=O)OC)C1c1ccccc1Cl (centres undefined) |
| inactive | CCNC(=O)/C(C#N)=C/c1c(N2CCN(c3ccccc3)CC2)nc2ccccn2c1=O |
| inactive | CCN(CC)c1ccc(/C=N/NC(=O)C(O)c2ccccc2)cc1 (centres undefined) |
| inactive | c1ccc(-c2oc3ncnc(NCCCN4CCOCC4)c3c2-c2ccccc2)cc1 |
| inactive | CCN(CC)c1ccc(/C=N/NC(=O)Cc2ccc(OC)c(OC)c2)cc1 |
| 11.9 µM | CC(=O)OCCc1c2ccccc2c(CCCN(C)C)c2ccccc12 |
| inactive | COc1ccc(CCNc2oc(-c3ccco3)nc2C#N)cc1 |
| > 100 µM (inactive) | Nc1nnc(-c2cc3ccccc3oc2=O)s1 |
| 19.7 µM | COc1ccc2cc3cc(C(=O)NCCc4ccc(OC)c(OC)c4)oc3nc2c1 |
| inactive | Cc1cccn2c(=O)c(C=NCc3ccccc3)c(NCCO)nc12 |
| inactive | C(=C\c1ccc2nncn2c1)/c1ccccc1 |
| inactive | CN(C)CCNc1nc(-c2ccco2)c2c(c1C#N)CC(C)(C)OC2 |
| inactive | CC(NC(=O)C1=CC=CN2CCS(=O)(=O)N=C12)c1ccc(Cl)c(Cl)c1 (centres undefined) |
| inactive | COc1ccc(-c2cc(C(=O)N(C)CC(=O)Nc3ccccc3Cl)c3ccccc3n2)cc1OC |
| > 100 µM (inactive) | O=C1NC(=O)c2cc3ccccc3cc21 |
| inactive | CN(C)c1ccc(-c2nc3cnccn3c2Nc2ccc3c(c2)OCCO3)cc1 |
| inactive | COC(=O)c1sc2nc3c(cc2c1N)COC(C)(C)C3 |
| inactive | N#Cc1c2c(c(NCCOCCO)n3c1nc1ccccc13)CCCC2 |
| inactive | COCCNC(=O)CSc1ccc(-c2nc3ccccc3[nH]2)cn1 |
| inactive | COc1cccc(Cn2cc(/C=N/NC(=O)c3cc(O)cc(O)c3)c3ccccc32)c1 |

| IC50 | SMILES |
| --- | --- |
| inactive | Cc1cc(C)n2nc(-c3cnn(C)c3C(F)(F)F)cc2n1 |
| inactive | COc1cc2c(cc1OC)-c1cc(NCc3ccccn3)nc(=O)n1CC2 |
| inactive | O=C(NC1CCCCC1)c1cnn2c(C(F)(F)F)cc(-c3ccco3)nc12 |
| inactive | Cc1cccc(C)c1NC(=O)C(c1ccncc1)n1c(=O)c(-c2ccccc2)nc2ccccc21 (centres undefined) |
| 18 µM | Cc1cc(NS(=O)(=O)c2ccc(NC(=O)c3cc4c(=O)n5ccccc5nc4s3)cc2)nc(C)n1 |
| inactive | O=C(O)CCc1ccc(-c2ccccc2)n1CC1CCCO1 (centres undefined) |
| inactive | CCN(/N=C/c1ccc(N(C)C)cc1)c1nc2ccccc2[nH]1 |
| inactive | Nc1ncnc2c1ncn2[C@@H]1O[C@H](COP(=O)(O)O)[C@@H](O)[C@H]1O |
| inactive | COc1ccc(-c2cc(C(=O)N3CCN(c4ccccc4O)CC3)c3ccccc3n2)cc1OC |
| inactive | Cc1ccc2c(c1)COc1c3ccc(C(=O)NCC4CC4)cc3nn1-2 |
| inactive | CN1CCOc2c1cnn(CCO)c2=O |
| inactive | Cc1cccn2c(=O)c3cc(C(=O)N4CCCCC4C)sc3nc12 (centres undefined) |
| 14.4 µM | CCc1ccc(-c2cnc3nc[nH]c(=O)c3n2)cc1 |
| inactive | O=C(O)c1sc2cc(C(F)(F)F)cnc2c1-c1cccs1 |
| inactive | COCCNc1c2c(c(C#N)c3nc4ccccc4n13)CCCC2 |
| inactive | CCCc1c(O)c2ccccc2[nH]c1=O |
| inactive | Cc1ccc(-c2cc(C(=O)NCCCN3CCOCC3)c3ccccc3n2)cc1 |
| inactive | COC(=O)C1C(O)=C(C=Nc2cccc3ccccc23)C(=O)CC1(C)C (centres undefined) |
| inactive | CN(C)c1ccc(/C=N/NC(=O)CCc2nc3ccccc3[nH]2)cc1 |
| inactive | COc1ccc(C(C(=O)NCC2CCCO2)N(C(=O)c2snc(C(N)=O)c2N)c2ccccc2)cc1OC (centres undefined) |
| 19.4 µM | COc1cc(F)ccc1-c1cc(C(=O)Nc2ccc(NC(C)=O)cc2)[nH]n1 |
| 14 µM | CS(=O)(=O)c1ccc2nc(NC(=O)c3ccc(Cl)nc3)sc2c1 |
| inactive | Cc1cccc(OCC(=O)N/N=C/c2ccc(N(C)C)cc2)c1 |
| inactive | CCOc1ccc(NC(=O)COC(=O)c2ccc3ncsc3c2)cc1OCC |
| inactive | CCc1c(C)c2ccc(OC(C)C(=O)NC(Cc3c[nH]c4ccc(O)cc34)C(=O)O)c(C)c2oc1=O (centres undefined) |

| IC50 | SMILES |
| --- | --- |
| inactive | CS(=O)(=O)N(CC(=O)N/N=C/c1cccc2c1OCCO2)c1ccccc1Br |
| inactive | Cc1cc(-c2ccccc2)c2nncn2n1 |
| inactive | Cc1c(C(C)NC(=O)c2cc(COc3cccc4cnccc34)on2)cnn1C (centres undefined) |
| inactive | Cc1nn(C)cc1CN(C)C(=O)c1cc2nc(-c3ccco3)cc(C(F)(F)F)n2n1 |
| inactive | COc1ccc(C(=O)n2cc(C(=O)c3cc(C)ccc3O)cn2)cc1OC |
| inactive | CCOC(=O)C1CCCN(c2nc3ccccc3nc2NS(=O)(=O)c2ccc(C)cc2)C1 (centres undefined) |
| inactive | CCN(CC)c1ccc(/C=N/NC(=O)CC(C)C)cc1 |
| 16.9 µM | Cc1ccc2cc3cc(C(=O)NCCN4CCOCC4)oc3nc2c1 |
| inactive | COCCNC(=O)c1ccc2c3n(nc2c1)-c1ccc(C)cc1CO3 |
| inactive | O=C(N/N=C/c1c(O)n(-c2ccccc2Cl)c(=O)c2ccccc12)C1COc2ccccc2O1 (centres undefined) |
| inactive | Cc1ccc(C(=O)N/C(=C\c2cccs2)c2nc3ccccc3[nH]2)cc1 |
| inactive | c1cc2c3c(cccc3c1)-c1cnccc1-2 |
| 12.1 µM | Oc1ccc(Br)cc1C=Nc1ccc2c3c(cccc13)CC2 |
| 9.68 µM | CC(=O)Nc1ccc(NC(=O)c2cc(-c3ccc(C)cc3O)n[nH]2)cc1 |
| inactive | CCCCCCc1c(C)c2ccc(OCC(=O)N3CCC[C@H]3C(=O)O)c(C)c2oc1=O |
| inactive | c1cn2c(-c3ccoc3)cncc2n1 |
| 9.52 µM | c1ccc(C[n+]2cccc3c4ccccc4ccc32)cc1 |
| > 100 µM (inactive) | Cc1c(Cc2ccccc2)c(=O)oc2c(C)c(OCc3nn[nH]n3)ccc12 |
| inactive | Cc1ccc2oc(-c3ccco3)cc(=O)c2c1 |
| inactive | CCOC(=O)N1CCN(S(=O)(=O)c2ccc3c4c(cccc24)C(=O)N3)CC1 |
| inactive | COc1ccc(-c2cc(=O)c3cc(O)ccc3o2)cc1 |
| inactive | CCC(=O)N/C(N)=N/c1nc(C)c2cc(OC)ccc2n1 |
| inactive | COCCN1C=C(C(=O)OC)C(c2ccc3c(c2)OCO3)C(C(=O)OC)=C1 |
| inactive | CC1CCN(C(=O)Nc2ccc3nsnc3c2)CC1 |
| inactive | O=C(O)c1cc(N2CCCCC2)nc2ccccc12 |

| IC50 | SMILES |
| --- | --- |
| inactive | NC(=O)C1CCN(C(=O)c2ccc3nc(-c4ccccc4)c(-c4ccccc4)nc3c2)CC1 |
| inactive | O=C(CSc1cccc2cccnc12)Nc1cc(C(=O)O)cc(C(=O)O)c1 |
| inactive | CN=Cc1c(NC)nc2c(C)cccn2c1=O |
| inactive | O=C(NCCc1ccc(Cl)cc1Cl)C1=CC=CN2CCS(=O)(=O)N=C12 |
| inactive | CCOC(=O)c1cc2c(=O)n3ccccc3nc2n(C(C)C)c1=NC(=O)c1ccncc1 |
| inactive | S=c1[nH]c2nc(Cl)c(Cl)nc2[nH]1 |
| inactive | CSc1ccc(/C=N/n2nnnc2N)cc1 |
| inactive | COc1ccc2sc(-c3ccc(SC)cc3)c(C#CCO)c2c1 |
| inactive | CCCCN(C)C(=O)c1cc2cc3ccc(OC)cc3nc2o1 |
| inactive | COc1ccc(C[C@H]2c3cc(O)c(OC)cc3CC[N+]2(C)[O-])cc1O (some centres undefined) |
| 19.4 µM | CSc1ccc(/C=C2\CCn3c2nc2cc(C(=O)O)ccc2c3=O)cc1 |
| inactive | O=C(CCCc1c[nH]c2ccccc12)N1CCN(c2ccc(N3CCOCC3)nn2)CC1 |
| inactive | CCCCc1c(O)n2c(nc3ccccc32)[nH]c1=O |
| 13.9 µM | O=C(Nc1cccnc1Cl)c1cc(-c2cccc(O)c2)on1 |
| 14.7 µM | CCCN(CC(=O)Nc1ccccc1C)C(=O)c1ccc(-c2ccc(C(C)=O)cc2)o1 |
| inactive | O=C(NC1CCCCC1)C(c1ccncc1)n1c(=O)c(-c2ccccc2)nc2ccccc21 (centres undefined) |
| inactive | O=c1[nH]c2ccccc2nc1-c1ccccc1 |
| inactive | COc1ccc(C(CC(=O)N2CCCCC2)c2c(OC)cc(OC)c3ccc(=O)oc23)cc1 (centres undefined) |
| inactive | Cc1ccc2c(c1)COc1c3ccc(C(=O)NCCO)cc3nn1-2 |
| inactive | Cc1csc(NC(=O)c2cc(=O)[nH]c3ccc(S(=O)(=O)N4CCOCC4)cc23)n1 |
| inactive | CC(C)(C)c1ccc(/C=C2\CCn3c2nc2cc(C(=O)O)ccc2c3=O)cc1 |
| inactive | COc1ccc(OCC(=O)N/N=C/c2ccc(N(C)C)cc2)cc1 |
| inactive | CC1CCCC(C)N1C(=O)CN1c2cccc3cccc(c23)S1(=O)=O (centres undefined) |
| inactive | CN(C)c1ccc(/C=N/NC(=O)COc2ccccc2)cc1 |
